Several values for one entry are separate records, joined by “and”; a condition that tells them apart may be missing. Equal values may be shown once. Read-outs that look alike come from different tables or passages of the source.
Key:
[1] = system: Primary human neuronal cells; test: cytotoxicity in primary human neurons (morphology, cell number, metabolism, cleaved caspase-3); format: cell-based
Excerpt: PrestoBlue cell viability reagent (ThermoFisher Scientific; Waltham, MA) was used for cell viability assays. The inhibitory dose-response data were normalized to the control (treatment with vehicle); the inhibitory dose-response curves, which were fitted by using Boltzmann equation, and the corresponding IC50s were generated by using OriginPro software (OriginLab Corporation, CA).
At the end of experiments, neurons and astrocytes were rinsed briefly with PBS and fixed by using 4% paraformaldehyde, pH 7.4 for 13 minutes at room temperature. Triton X-100 (0.3%) in PBST buffer (i.e., PBS with 0.1% Tween 20) was used for cell permeabilization for 30 minutes at room temperature. Cells were rinsed with PBST buffer 3 times for 10 minutes after fixation. Blocking buffer (3% BSA, 22.52 mg/ml glycine in PBST) was used to block unspecific antibody binding for 30 minutes at room temperature. Primary cleaved caspase 3 antibody (Cell Signaling Technology; Danvers, MA) at 1:200 dilution in PBST buffer with 1% BSA was utilized overnight at 4° C. for cleaved caspase 3 staining. The next day, cells were rinsed four times for 10 minutes with PBST buffer and then were incubated with secondary antibody (Alexa Fluor 594, goat anti-rabbit IgG, Invitrogen (Carlsbad, CA), 1:2000/5000 dilution) in PBST buffer with 1% BSA for 1 hour at room temperature in the dark. Next, cells were rinsed with PBST buffer 4 times for 10 minutes in the dark. Cell nucleus were stained with DAPI (4′,6-diamidino-2-phenylindole). Cell images were obtained with EVOS Fl (Life Technologies; Eugene, OR) imaging system.
The cellular metabolism declined by about 44% after treatment with SRI-42127, 25 uM for 48 hours as shown by FIG. 5E. […] Therefore, compound SRI-42127 inhibited glioma cell growth and had low neuronal and astrocyte cytotoxicity at concentrations below 15 uM.

[2] = in vivo pharmacokinetic study in mice by ip administration; parameters: species or system C57Bl/6 mice; conditions: for concentration at 0.167 h / concentration at 0.5 h / Kp at 0.167 h / Kp at 0.5 h / Kp at 1 h / AUC(0-inf) / AUC(0-t) / Cmax / Tmax / MRT inf / half-life / Brain concentration / Plasma concentration / Ratio (Brain/Plasma) / AUCExtrap—obs: mouse; for concentration at 0.167 h / concentration at 0.5 h / Kp at 0.167 h / Kp at 0.5 h / Kp at 1 h / Brain concentration / Plasma concentration / Ratio (Brain/Plasma): 10 mg/kg IP; for AUC(0-inf) / AUC(0-t) / Cmax / Tmax / MRT inf / half-life: C57Bl/6; for MRT inf: read-out: MRTInf_obs
Protocol: The in vivo PK study for SRI-42127 was performed by Pharmaron (Beijing, China); pharmacokinetics were evaluated in the C57Bl/6 mice. […]

[3] = system: X1524 neurospheres, HuR mRNA targets; test: Illumina global RNA-sequencing of PDGx neurospheres; format: cell-based; conditions: 3 uM, 12 hours, compared to control
Protocol: (§1) Illumina global RNA-sequencing data were generated by utilizing PDGx neurospheres, which have been treated with a compound as described herein (e.g., SRI-42127, 3 uM) for 12 hours or with vehicle as the control. RNA was isolated by using TRIzol reagent (Invitrogen; Carlsbad, CA). The RNA samples were processed.
(§2) RNA sequencing was performed on PDGx-derived glioma neurospheres representing the different molecular subtypes (classical, neuronal, and mesenchymal) after treatment with vehicle (control) or SRI-42127 (3 uM) for 12 hours. Analysis of direct HuR mRNA targets and their corresponding cell signaling pathways was performed. Table 9 illustrates the evaluated gene sets, representing direct HuR mRNA targets, and their corresponding cell signaling pathways.
(§3) The analysis of direct HuR mRNA targets and their corresponding cell signaling pathways has been performed by using gene sets, which have been defined as the direct HuR targets following tumor neurosphere treatment with DHTS, an established modulator of HuR/mRNA interaction (Lal et al., Nucleic Acid Research, 2017). […] Data are represented as average+standard deviation (Aver+SD). The significance was evaluated by using Student t-test.
(§4) The analysis was generated based on RNA-Seq data.

[4] = system: JX22p neurospheres, HuR mRNA targets; test: as above; format: cell-based; conditions: 3 uM, 12 hours, compared to control
Protocol: as §1, §2, §3, §4

[5] = 0.167 h, individual animals, 10 mg/kg
[6] = 0.5 h, individual animals, 10 mg/kg
[7] = 1 h, individual animals, 10 mg/kg

## CN(c1ccc2ncc(-c3ccc4cn[nH]c4c3)n2n1)C1CCOCC1 [Compound 19]
[1]; 25 uM for 48 hours
  decline of cellular metabolism: about 44%
[1]; neurons, up to 15 uM, 48 hours
  cleaved caspase-3 immunostaining: no significant alterations
[1]; up to 15 uM for 48 hours
  morphological changes of neurons: no morphological changes
[1]; up to 15 uM for 48 hours, listed as SRI-42127
  neuron cell numbers and cell sprouting: remained unchanged
[2]; C57Bl/6, mouse, brain, ip, 10 mg/kg, 0.167 h, individual animals, read-out: Brain concentration
  concentration at 0.167 h: 1220 ng/g
[2]; C57Bl/6, mouse, brain, ip, 10 mg/kg, 0.5 h, individual animals, read-out: Brain concentration
  concentration at 0.5 h: 420 ng/g
[2]; C57Bl/6, mouse, brain/plasma, ip, 10 mg/kg, mice, ip administration, all time points, read-out: brain/plasma concentration ratio
  Kp: ~0.4
[2]; C57Bl/6, mouse, brain/plasma, ip, 10 mg/kg, 0.167 h, individual animals, read-out: Ratio (Brain/Plasma)
  Kp at 0.167 h: 0.419
[2]; C57Bl/6, mouse, brain/plasma, ip, 10 mg/kg, 0.167 h, read-out: Ratio (Brain/Plasma) Mean
  Kp at 0.167 h: 0.399
[2]; C57Bl/6, mouse, brain/plasma, ip, 10 mg/kg, 0.5 h, individual animals, read-out: Ratio (Brain/Plasma)
  Kp at 0.5 h: 0.536
[2]; C57Bl/6, mouse, brain/plasma, ip, 10 mg/kg, 0.5 h, read-out: Ratio (Brain/Plasma) Mean
  Kp at 0.5 h: 0.455
[2]; C57Bl/6, mouse, brain/plasma, ip, 10 mg/kg, 1 h, individual animals, read-out: Ratio (Brain/Plasma)
  Kp at 1 h: 0.408
[2]; C57Bl/6, mouse, brain/plasma, ip, 10 mg/kg, 1 h, read-out: Ratio (Brain/Plasma) Mean
  Kp at 1 h: 0.398
[2]; C57Bl/6, mouse, plasma, ip, 10 mg/kg, 0.167 h, individual animals, read-out: Plasma concentration
  concentration at 0.167 h: 2910 ng/mL
[2]; C57Bl/6, mouse, plasma, ip, 10 mg/kg, 0.5 h, individual animals, read-out: Plasma concentration
  concentration at 0.5 h: 782 ng/mL
[2]; 10 mg/kg ip, Brain
  AUC(0-inf): 550 ng·h/mL
  AUC(0-t): 541 ng·h/mL
  Cmax: 1370 ng/mL
  Tmax: 10 min
  MRT inf: 18.8 min
  AUCExtrap—obs: 1.63%
[2]; 10 mg/kg ip, Brain, read-out: T½ (converted)
  half-life: 9.6 min
[2]; 10 mg/kg ip, Plasma
  AUC(0-inf): 1340 ng·h/mL
  AUC(0-t): 1320 ng·h/mL
  Cmax: 3460 ng/mL
  Tmax: 10 min
  MRT inf: 18.4 min
  AUCExtrap—obs: 1.65%
[2]; 10 mg/kg ip, Plasma, read-out: T½ (converted)
  half-life: 9.6 min
[2]; dose of 10 mg/kg by IP, read-out: half-life (converted)
  half-life: 9.6 min
[2]; mice, ip administration, all time points, listed as SRI-42127
  brain/plasma concentration ratio: 0.42±0.05
[2]; [5]
  Brain concentration: 1375 ng/g and 1520 ng/g
  Plasma concentration: 3450 ng/mL and 4010 ng/mL
  Ratio (Brain/Plasma): 0.379
[2]; [6]
  Brain concentration: 545 ng/g and 391 ng/g
  Plasma concentration: 1430 ng/mL and 870 ng/mL
  Ratio (Brain/Plasma): 0.381 and 0.449
[2]; [7]
  Brain concentration: 53.0 ng/g and 43.9 ng/g and 19.7 ng/g
  Plasma concentration: 130 ng/mL and 104 ng/mL and 53.9 ng/mL
  Ratio (Brain/Plasma): 0.422 and 0.365
[3]
  gene set average value, Activation of BH3-only proteins Homo sapiens_R-HSA-114452: 0.75
  gene set average value, Cell Cycle Check points_Homo Sapiens_R-HSA-69620: 0.66
  gene set average value, Cell Cycle, Mitotic_Homo Sapiens_R-HSA-69278: 0.67
  gene set average value, Cell Cycle_Homo sapiens_R-HSA-1640170: 0.66
  gene set average value, Cell cycle_Homo Sapiens_hsa04110: 0.75
  gene set average value, Cellular Senescence_Homo sapiens_R-HSA-2559583: 0.76
  gene set average value, Cellular responses to Stress_Homo sapiens_R-HSA-2262752: 0.70
  gene set average value, Deadenylation-dependent mRNA decay_Homo sapiens_R-HSA-429914: 0.84
  gene set average value, Developmental Biology_Homo sapiens_R-HSA-1266738: 0.72
  gene set average value, Epstein-Barr virus Infection_Homo Sapiens_hsa05169: 0.79
  gene set average value, G2/M Check points_Homo sapiens_R-HSA-69481: 0.66
  gene set average value, G2/M DNA damage Checkpoint_Homo sapiens_R-HSA-69473: 0.67
  gene set average value, Gene Expression_Homo Sapiens_R-HSA-2559583: 0.87
  gene set average value, HTLV-1 infection_Homo Sapiens_hsa05186: 0.88
  gene set average value, Intrinsic Pathway for Apoptosis_Homo sapiens_R-HSA-109606: 0.75
  gene set average value, MAPK signaling Pathway_Homo Sapiens_hsa04010: 0.76
  gene set average value, Membrane Trafficking_Homo sapiens_R-HAS-199991: 0.61
  gene set average value, Mitotic G1-G1/S phases_Homo sapiens_R-HSA-453279: 0.63
  gene set average value, P53 signaling pathway_Homo Sapiens_hsa04115: 1.07
  gene set average value, RHO GTPases Activate Formins_Homo sapiens_R-HSA-5663220: 0.65
  gene set average value, RHO GTPases Effectors_Homo sapiens_R-HSA-195258: 0.69
  gene set average value, RNA degradation_Homo Sapiens_hsa03018: 0.94
  gene set average value, Regulation of TP53 Activity through Phosphorylation_Homo sapiens_R-HSA-6804756: 0.64
  gene set average value, Regulation of TP53 Activity_Homo sapiens_R-HSA-109606: 0.77
  gene set average value, Signaling by Rho GTPases_Homo sapiens_R-HSA-194315: 0.72
  gene set average value, TP53 Regulates Metabolic Genes_Homo sapiens_R-HSA-5628897: 0.78
  gene set average value, Transcriptional Regulation by TP53_Homo sapiens_R-HSA-3700989: 0.81
  gene set average value, Translocation of GLUT4 to the plasma membrane_Homo sapiens_R-HSA-1445148: 0.69
[4]
  gene set average value, Activation of BH3-only proteins Homo sapiens_R-HSA-114452: 0.42
  gene set average value, Cell Cycle Check points_Homo Sapiens_R-HSA-69620: 0.35
  gene set average value, Cell Cycle, Mitotic_Homo Sapiens_R-HSA-69278: 0.32
  gene set average value, Cell Cycle_Homo sapiens_R-HSA-1640170: 0.36
  gene set average value, Cell cycle_Homo Sapiens_hsa04110: 0.37
  gene set average value, Cellular Senescence_Homo sapiens_R-HSA-2559583: 0.28
  gene set average value, Cellular responses to Stress_Homo sapiens_R-HSA-2262752: 0.27
  gene set average value, Deadenylation-dependent mRNA decay_Homo sapiens_R-HSA-429914: 0.31
  gene set average value, Developmental Biology_Homo sapiens_R-HSA-1266738: 0.32
  gene set average value, Epstein-Barr virus Infection_Homo Sapiens_hsa05169: 0.43
  gene set average value, G2/M Check points_Homo sapiens_R-HSA-69481: 0.39
  gene set average value, G2/M DNA damage Checkpoint_Homo sapiens_R-HSA-69473: 0.39
  gene set average value, Gene Expression_Homo Sapiens_R-HSA-2559583: 0.37
  gene set average value, HTLV-1 infection_Homo Sapiens_hsa05186: 0.47
  gene set average value, Intrinsic Pathway for Apoptosis_Homo sapiens_R-HSA-109606: 0.42
  gene set average value, MAPK signaling Pathway_Homo Sapiens_hsa04010: 0.31
  gene set average value, Membrane Trafficking_Homo sapiens_R-HAS-199991: 0.28
  gene set average value, Mitotic G1-G1/S phases_Homo sapiens_R-HSA-453279: 0.36
  gene set average value, P53 signaling pathway_Homo Sapiens_hsa04115: 0.24
  gene set average value, RHO GTPases Activate Formins_Homo sapiens_R-HSA-5663220: 0.26
  gene set average value, RHO GTPases Effectors_Homo sapiens_R-HSA-195258: 0.30
  gene set average value, RNA degradation_Homo Sapiens_hsa03018: 0.35
  gene set average value, Regulation of TP53 Activity through Phosphorylation_Homo sapiens_R-HSA-6804756: 0.34
  gene set average value, Regulation of TP53 Activity_Homo sapiens_R-HSA-109606: 0.31
  gene set average value, Signaling by Rho GTPases_Homo sapiens_R-HSA-194315: 0.30
  gene set average value, TP53 Regulates Metabolic Genes_Homo sapiens_R-HSA-5628897: 0.30
  gene set average value, Transcriptional Regulation by TP53_Homo sapiens_R-HSA-3700989: 0.31
  gene set average value, Translocation of GLUT4 to the plasma membrane_Homo sapiens_R-HSA-1445148: 0.40
